Residues, ends and D or L forms follow the SMILES beside them.
Tests used:
CPAF = CPAF (Chlamydia trachomatis serovar D, UniProt O84866); format: biochemical
[1] = test system: C. trachomatis LGV-L2 434-infected HeLa cells; conditions: C. trachomatis LGV-L2 434-infected HeLa cells treated with lactacystin; cited from earlier work

CPAF, sequence (O84866 276-601): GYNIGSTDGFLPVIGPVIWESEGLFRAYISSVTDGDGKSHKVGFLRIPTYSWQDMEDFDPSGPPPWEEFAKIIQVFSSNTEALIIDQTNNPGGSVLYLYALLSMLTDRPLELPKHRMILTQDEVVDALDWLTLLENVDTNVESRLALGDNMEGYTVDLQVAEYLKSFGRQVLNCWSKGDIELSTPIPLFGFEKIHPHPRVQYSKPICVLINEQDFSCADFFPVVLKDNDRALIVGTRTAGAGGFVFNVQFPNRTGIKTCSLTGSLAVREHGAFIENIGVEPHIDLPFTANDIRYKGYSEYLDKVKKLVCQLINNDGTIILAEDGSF
CPAF, sequence (O84866 1-234): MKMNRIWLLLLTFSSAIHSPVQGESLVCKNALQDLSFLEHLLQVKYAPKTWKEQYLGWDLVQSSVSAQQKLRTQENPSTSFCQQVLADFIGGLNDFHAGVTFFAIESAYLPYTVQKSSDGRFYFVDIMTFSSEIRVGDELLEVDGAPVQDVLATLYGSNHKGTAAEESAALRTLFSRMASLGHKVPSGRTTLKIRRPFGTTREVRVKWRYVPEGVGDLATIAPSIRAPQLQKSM

## CSCC[C@H](NC(=O)[C@@H]1CCCN1C(=O)[C@H](CO)NC(=O)[C@H](Cc1ccc(O)cc1)NC(=O)[C@H](Cc1ccccc1)NC(=O)[C@H](CC(C)C)NC(=O)[C@@H](N)CO)C(=O)N[C@H](C(=O)N1CCC[C@H]1C(=O)N[C@@H](Cc1c[nH]cn1)C(=O)N[C@@H](Cc1ccccc1)C(=O)N[C@@H](Cc1c[nH]c2ccccc12)C(=O)N[C@@H](C)C(=O)N[C@@H](CCC(=O)O)C(=O)N[C@@H](CC(C)C)C(=O)N[C@@H](CCCNC(=N)N)C(=O)N[C@@H](CC(N)=O)C(=O)N[C@@H](Cc1c[nH]cn1)C(=O)N[C@@H](Cc1ccc(O)cc1)C(=O)N[C@@H](C)C(=O)N[C@H](C(=O)N[C@@H](CO)C(=O)NCC(=O)N[C@@H](CC(C)C)C(=O)N[C@@H](CCCCN)C(=O)N[C@@H](CCCNC(=N)N)C(=O)N[C@@H](CCCNC(=N)N)C(=O)N[C@@H](CCCNC(=N)N)C(=O)N[C@@H](CCCNC(=N)N)C(=O)N[C@@H](CCCNC(=N)N)C(=O)N[C@@H](CCCNC(=N)N)C(=O)N[C@@H](CCCNC(=N)N)C(=O)N[C@@H](CCCNC(=N)N)C(=O)N[C@@H](CCCNC(=N)N)C(N)=O)[C@@H](C)O)C(C)C [peptide 4] (H-SLFYSPMVPHFWAELRNHYATSGLKRRRRRRRRR-NH2)
CPAF; ratio of CPAF IC50 values
  potency relative to inhibitor 3 (fold better): ~30 fold
  potency relative to lactacystin (fold more potent): ~200 fold

## H-NFALSHFRLPLSTYKEMPYVSHWAGRRRRRRRRR-NH2 [peptide 5]
CPAF; in vitro
  CPAF inhibitory activity in vitro: no CPAF inhibitory activity

## CSCC[C@H](NC(=O)[C@@H]1CCCN1C(=O)[C@H](CO)NC(=O)[C@H](Cc1ccc(O)cc1)NC(=O)[C@H](Cc1ccccc1)NC(=O)[C@H](CC(C)C)NC(=O)[C@@H](N)CO)C(=O)N[C@H](C(=O)N1CCC[C@H]1C(=O)N[C@@H](Cc1c[nH]cn1)C(=O)N[C@@H](Cc1ccccc1)C(=O)N[C@@H](Cc1c[nH]c2ccccc12)C(=O)N[C@@H](C)C(=O)N[C@@H](CCC(=O)O)C(=O)N[C@@H](CC(C)C)C(=O)N[C@@H](CCCNC(=N)N)C(=O)N[C@@H](CC(N)=O)C(=O)N[C@@H](Cc1c[nH]cn1)C(=O)N[C@@H](Cc1ccc(O)cc1)C(=O)N[C@@H](C)C(=O)N[C@H](C(=O)N[C@@H](CO)C(=O)NCC(=O)N[C@@H](CC(C)C)C(=O)N[C@@H](CCCCN)C(N)=O)[C@@H](C)O)C(C)C [peptide 3] (H-SLFYSPMVPHFWAELRNHYATSGLK-NH2)
CPAF; ratio of CPAF IC50 values
  potency relative to lactacystin (fold more potent): 6 fold

## CC(=O)N[C@@H](CSC(=O)[C@]1([C@@H](O)C(C)C)NC(=O)[C@H](C)[C@@H]1O)C(=O)O [lactacystin]
[1]
  effect on vimentin in infected HeLa cells: fiber oligermerization of vimentin

Reference: paper PMC3608462 (Biochemistry, 2011)
